Laboratory results from PMC3391913, “Cellular Immune Reactions of the Sunn Pest, Eurygaster integriceps, to the Entomopathogenic Fungus, Beauveria bassiana and Its Secondary Metabolites” (Journal of Insect Science, 2011).

Tested on: T1, phenoloxidase (PO)
T1 construct: gene prophenoloxidase; native, unpurified hemocyte lysate supernatant of adults; bands of 46 and 59 kDa on native PAGE
Assay: spectrophotometric phenoloxidase assay at […] nm, fit in SigmaPlot
Type: biochemical, Eurygaster integriceps
Details: control insects without fungal metabolite; hemocyte lysate; 3-10 mM substrate; phosphate buffer pH 6.5; 30 °C

Km: 1630 µM
SMILES: N[C@@H](Cc1ccc(O)c(O)c1)C(=O)O [L-dihydroxyphenylalanine]
